# Results taken from PubChem BioAssay (NCI).
#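 Each compound was tested at five concentrations against cells in 96-well plates for 48 hours. GI50 = concentration required for 50% inhibition of growth. TGI: total growth inhibition.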
# Legend:
# Experiment in all cases: inhibition of tumour cell growth, NCI panel, 48 h
# [1] = tested on: 786-0 renal
# [2] = tested on: A498 renal
# [3] = tested on: A549 NSCLC
# [4] = tested on: ACHN renal
# [5] = tested on: CAKI-1 renal
# [6] = tested on: EKVX NSCLC
# [7] = tested on: HCC-2998 colon
# [8] = tested on: HCT-116 colon
# [9] = tested on: HCT-15 colon
# [10] = tested on: HL-60(TB) leukemia
# [11] = tested on: HOP-62 NSCLC
# [12] = tested on: HT29 colon
# [13] = tested on: IGROV1 ovarian
# [14] = tested on: K-562 leukemia
# [15] = tested on: KM12 colon
# [16] = tested on: KM20L2 colon
# [17] = tested on: LOX IMVI melanoma
# [18] = tested on: M14 melanoma
# [19] = tested on: MALME-3M melanoma
# [20] = tested on: MOLT-4 leukemia
# [21] = tested on: NCI-H226 lung
# [22] = tested on: NCI-H460 lung
# [23] = tested on: NCI-H522 lung
# [24] = tested on: OVCAR-3 ovarian
# [25] = tested on: OVCAR-4 ovarian
# [26] = tested on: OVCAR-5 ovarian
# [27] = tested on: OVCAR-8 ovarian
# [28] = tested on: RPMI-8226 leukemia
# [29] = tested on: SF-268 CNS
# [30] = tested on: SF-295 CNS
# [31] = tested on: SF-539 CNS
# [32] = tested on: SK-MEL-2 melanoma
# [33] = tested on: SK-MEL-28 melanoma
# [34] = tested on: SK-MEL-5 melanoma
# [35] = tested on: SK-OV-3 ovarian
# [36] = tested on: SN12C renal
# [37] = tested on: SNB-19 CNS
# [38] = tested on: SNB-75 CNS
# [39] = tested on: SW-620 colon
# [40] = tested on: U251 CNS
# [41] = tested on: UACC-257 melanoma
# [42] = tested on: UACC-62 melanoma
# [43] = tested on: UO-31 renal
# [44] = tested on: BT-549 breast
# [45] = tested on: CCRF-CEM leukemia
# [46] = tested on: COLO 205 colon
# [47] = tested on: DU-145 prostate
# [48] = tested on: HOP-92 NSCLC
# [49] = tested on: HS 578T breast
# [50] = tested on: MCF7 breast
# [51] = tested on: MDA-MB-231 breast
# [52] = tested on: MDA-MB-435
# [53] = tested on: MDA-N
# [54] = tested on: NCI-H23 lung
# [55] = tested on: NCI/ADR-RES ovarian
# [56] = tested on: PC-3 prostate
# [57] = tested on: RXF 393 renal
# [58] = tested on: SR leukemia
# [59] = tested on: T-47D breast
# [60] = tested on: TK-10 renal
smiles,measurement,setting,value
CC(=O)[CH-]C(=O)c1ccccc1.CC(=O)[CH-]C(=O)c1ccccc1.O=S(=O)([O-])c1cc([O-])c2c([O-])cc(S(=O)(=O)[O-])cc2c1.[Na+].[Zr+4],GI50,[1],70.8 µM
same,TGI,[1],> 100 µM
same,GI50,[2],> 100 µM
same,TGI,[2],> 100 µM
same,GI50,[3],> 100 µM
same,TGI,[3],> 100 µM
same,GI50,[4],> 100 µM
same,TGI,[4],> 100 µM
same,GI50,[5],60 µM
same,TGI,[5],> 100 µM
same,GI50,[6],> 100 µM
same,TGI,[6],> 100 µM
same,GI50,[7],> 100 µM
same,TGI,[7],> 100 µM
same,GI50,[8],> 100 µM
same,TGI,[8],> 100 µM
same,GI50,[9],> 100 µM
same,TGI,[9],> 100 µM
same,GI50,[10],> 100 µM
same,TGI,[10],> 100 µM
same,GI50,[11],76 µM
same,TGI,[11],> 100 µM
same,GI50,[12],> 100 µM
same,TGI,[12],> 100 µM
same,GI50,[13],> 100 µM
same,TGI,[13],> 100 µM
same,GI50,[14],> 100 µM
same,TGI,[14],> 100 µM
same,GI50,[15],> 100 µM
same,TGI,[15],> 100 µM
same,GI50,[16],> 100 µM
same,TGI,[16],> 100 µM
same,GI50,[17],> 100 µM
same,TGI,[17],> 100 µM
same,GI50,[18],52.2 µM
same,TGI,[18],> 100 µM
same,GI50,[19],53.1 µM
same,TGI,[19],> 100 µM
same,GI50,[20],40.8 µM
same,TGI,[20],> 100 µM
same,GI50,[21],30.4 µM
same,TGI,[21],90.9 µM
same,GI50,[22],94.1 µM
same,TGI,[22],> 100 µM
same,GI50,[23],> 100 µM
same,TGI,[23],> 100 µM
same,GI50,[24],> 100 µM
same,TGI,[24],> 100 µM
same,GI50,[25],> 100 µM
same,TGI,[25],> 100 µM
same,GI50,[26],> 100 µM
same,TGI,[26],> 100 µM
same,GI50,[27],> 100 µM
same,TGI,[27],> 100 µM
same,GI50,[28],> 100 µM
same,TGI,[28],> 100 µM
same,GI50,[29],> 100 µM
same,TGI,[29],> 100 µM
same,GI50,[30],69.8 µM
same,TGI,[30],> 100 µM
same,GI50,[31],> 100 µM
same,TGI,[31],> 100 µM
same,GI50,[32],> 100 µM
same,TGI,[32],> 100 µM
same,GI50,[33],> 100 µM
same,TGI,[33],> 100 µM
same,GI50,[34],> 100 µM
same,TGI,[34],> 100 µM
same,GI50,[35],> 100 µM
same,TGI,[35],> 100 µM
same,GI50,[36],97.3 µM
same,TGI,[36],> 100 µM
same,GI50,[37],35.3 µM
same,TGI,[37],> 100 µM
same,GI50,[38],49 µM
same,TGI,[38],> 100 µM
same,GI50,[39],> 100 µM
same,TGI,[39],> 100 µM
same,GI50,[40],> 100 µM
same,TGI,[40],> 100 µM
same,GI50,[41],87.2 µM
same,TGI,[41],> 100 µM
same,GI50,[42],> 100 µM
same,TGI,[42],> 100 µM
same,GI50,[43],> 100 µM
same,TGI,[43],> 100 µM
Cc1ccc2nc(C(C)C)c(=O)[nH]c2c1,TGI,[1],> 100 µM
same,TGI,[2],> 100 µM
same,TGI,[3],> 100 µM
same,TGI,[4],> 100 µM
same,TGI,[44],> 100 µM
same,TGI,[5],> 100 µM
same,TGI,[45],> 100 µM
same,TGI,[46],> 100 µM
same,TGI,[47],> 100 µM
same,TGI,[6],> 100 µM
same,TGI,[7],> 100 µM
same,TGI,[8],> 100 µM
same,TGI,[9],> 100 µM
same,TGI,[10],> 100 µM
same,TGI,[11],30.9 µM
same,TGI,[48],> 100 µM
same,TGI,[49],> 100 µM
same,TGI,[12],> 100 µM
same,TGI,[13],> 100 µM
same,TGI,[14],> 100 µM
same,TGI,[15],> 100 µM
same,TGI,[18],> 100 µM
same,TGI,[19],> 100 µM
same,TGI,[50],> 100 µM
same,TGI,[51],> 100 µM
same,TGI,[52],> 100 µM
same,TGI,[53],> 100 µM
same,TGI,[20],> 100 µM
same,TGI,[21],> 100 µM
same,TGI,[54],> 100 µM
same,TGI,[22],> 100 µM
same,TGI,[23],> 100 µM
same,TGI,[55],> 100 µM
same,TGI,[24],32.8 µM
same,TGI,[25],> 100 µM
same,TGI,[26],> 100 µM
same,TGI,[27],> 100 µM
same,TGI,[56],34.1 µM
same,TGI,[28],> 100 µM
same,TGI,[57],> 100 µM
same,TGI,[29],> 100 µM
same,TGI,[30],> 100 µM
same,TGI,[31],> 100 µM
same,TGI,[32],28.2 µM
same,TGI,[33],> 100 µM
same,TGI,[34],> 100 µM
same,TGI,[35],> 100 µM
same,TGI,[36],> 100 µM
same,TGI,[37],> 100 µM
same,TGI,[38],> 100 µM
same,TGI,[58],> 100 µM
same,TGI,[39],> 100 µM
same,TGI,[59],> 100 µM
same,TGI,[60],> 100 µM
same,TGI,[40],> 100 µM
same,TGI,[41],> 100 µM
same,TGI,[42],> 100 µM
same,TGI,[43],> 100 µM
